# Measured values taken from ChEMBL document CHEMBL5236646, “Design, synthesis, and biological evaluation of BRD4 degraders” (Bioorg Med Chem, 2023).
# Active and inactive are the calls of the source. No cut-off for these calls is given here.
# Key:
# [1] = tested on: MM1.S; assay: Antiproliferative activity against human MM1.S cells assessed as inhibition of cell growth incubated for 72 hrs MTS assay; assay type: functional, cell-based
# [2] = tested on: MV4-11; assay: Antiproliferative activity against human […] cells assessed as inhibition of cell growth incubated for 72 hrs MTS assay; assay type: functional, cell-based; settings: MV4-11, 72 h
# [3] = biological target: T1, Protein cereblon/Bromodomain-containing protein 4 (Homo sapiens) (UniProt O60885+Q96SW2); assay: Protac activity at CRBN/BRD4 in human MM1.S cells assessed as induction of BRD4 protein degradation by measuring residual activity at 0.03 uM incubated for 3 hrs by Western blot analysis relative to control; assay type: cell-based
# T1 sequence (Q96SW2 whole entry, looked up, other chains not shown): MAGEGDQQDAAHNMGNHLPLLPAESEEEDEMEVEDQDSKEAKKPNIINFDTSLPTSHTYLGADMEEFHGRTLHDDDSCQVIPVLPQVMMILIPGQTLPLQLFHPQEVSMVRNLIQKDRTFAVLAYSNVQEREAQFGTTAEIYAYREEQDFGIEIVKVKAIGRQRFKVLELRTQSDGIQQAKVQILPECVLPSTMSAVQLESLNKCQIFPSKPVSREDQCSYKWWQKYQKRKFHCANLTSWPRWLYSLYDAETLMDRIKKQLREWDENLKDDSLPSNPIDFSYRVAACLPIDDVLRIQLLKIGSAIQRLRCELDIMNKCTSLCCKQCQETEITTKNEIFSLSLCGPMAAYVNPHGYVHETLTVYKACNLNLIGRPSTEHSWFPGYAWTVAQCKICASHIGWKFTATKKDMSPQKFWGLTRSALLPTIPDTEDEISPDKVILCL
# [4] = biological target: T1, Protein cereblon/Bromodomain-containing protein 4 (Homo sapiens); assay: Protac activity at CRBN/BRD4 in human MM1.S cells assessed as induction of BRD4 protein degradation by measuring residual activity at 0.1 uM incubated for 3 hrs by Western blot analysis relative to control; assay type: cell-based
# [5] = biological target: T1, Protein cereblon/Bromodomain-containing protein 4 (Homo sapiens); assay: Protac activity at CRBN/BRD4 in human MM1.S cells assessed as induction of BRD4 protein degradation by measuring residual activity at 0.3 uM incubated for 3 hrs by Western blot analysis relative to control; assay type: cell-based
# [6] = biological target: T1, Protein cereblon/Bromodomain-containing protein 4 (Homo sapiens); assay: Protac activity at CRBN/BRD4 in human MV4-11 cells assessed as induction of BRD4 protein degradation by measuring residual activity at 0.01 uM incubated for 3 hrs by Western blot analysis relative to control; assay type: cell-based
# [7] = biological target: T1, Protein cereblon/Bromodomain-containing protein 4 (Homo sapiens); assay: Protac activity at CRBN/BRD4 in human MV4-11 cells assessed as induction of BRD4 protein degradation by measuring residual activity at 0.03 uM incubated for 3 hrs by Western blot analysis relative to control; assay type: cell-based
# [8] = biological target: T1, Protein cereblon/Bromodomain-containing protein 4 (Homo sapiens); assay: Protac activity at CRBN/BRD4 in human MV4-11 cells assessed as induction of BRD4 protein degradation by measuring residual activity at 0.09 uM incubated for 3 hrs by Western blot analysis relative to control; assay type: cell-based
# [9] = biological target: T1, Protein cereblon/Bromodomain-containing protein 4 (Homo sapiens); assay: Protac activity at CRBN/BRD4 in human MM1.S cells assessed as downregulation of MYC protein expression at […] incubated for 3 hrs by Western blot analysis; assay type: cell-based
# [10] = biological target: T1, Protein cereblon/Bromodomain-containing protein 4 (Homo sapiens); assay: Protac activity at CRBN/BRD4 in human MV4-11 cells assessed as induction of BRD4 protein degradation by measuring residual activity at 30 nM measured after 6 hrs by Western blot analysis (reference value: 100%); assay type: cell-based
# [11] = biological target: T1, Protein cereblon/Bromodomain-containing protein 4 (Homo sapiens); assay: Protac activity at CRBN/BRD4 in human MM1.S cells assessed as induction of BRD4 protein degradation by measuring residual activity at 100 nM measured after 6 hrs by Western blot analysis (reference value: 100%); assay type: cell-based
# [12] = biological target: T1, Protein cereblon/Bromodomain-containing protein 4 (Homo sapiens); assay: Protac activity at CRBN/BRD4 in human MM1.S cells assessed as induction of BRD4 protein degradation by measuring residual activity at 300 nM measured after 6 hrs by Western blot analysis (reference value: 100%); assay type: cell-based
# [13] = biological target: T1, Protein cereblon/Bromodomain-containing protein 4 (Homo sapiens); assay: Protac activity at CRBN/BRD4 in human MM1.S cells assessed as induction of BRD4 protein degradation by measuring residual activity at 1000 nM measured after 6 hrs by Western blot analysis (reference value: 100%); assay type: cell-based
# [14] = biological target: T1, Protein cereblon/Bromodomain-containing protein 4 (Homo sapiens); assay: Protac activity at CRBN/BRD4 in human MV4-11 cells assessed as induction of BRD4 protein degradation by measuring residual activity at 10 nM measured after 6 hrs by Western blot analysis (reference value: 100%); assay type: cell-based
# [15] = biological target: T1, Protein cereblon/Bromodomain-containing protein 4 (Homo sapiens); assay: Protac activity at CRBN/BRD4 in human MV4-11 cells assessed as induction of BRD4 protein degradation by measuring residual activity at 100 nM measured after 6 hrs by Western blot analysis (reference value: 100%); assay type: cell-based
# [16] = biological target: T1, Protein cereblon/Bromodomain-containing protein 4 (Homo sapiens); assay: Protac activity at CRBN/BRD4 in human MM1.S cells assessed as induction of BRD4 protein degradation by measuring residual activity at 0.06 uM incubated for 3 hrs by Western blot analysis relative to control; assay type: cell-based
# [17] = biological target: T1, Protein cereblon/Bromodomain-containing protein 4 (Homo sapiens); assay: Protac activity at CRBN/BRD4 in human MM1.S cells assessed as induction of BRD4 protein degradation by measuring residual activity at 0.18 uM incubated for 3 hrs by Western blot analysis relative to control; assay type: cell-based
# [18] = biological target: T1, Protein cereblon/Bromodomain-containing protein 4 (Homo sapiens); assay: Protac activity at CRBN/BRD4 in human MM1.S cells assessed as induction of BRD4 protein degradation by measuring residual activity at 0.02 uM incubated for 3 hrs by Western blot analysis relative to control; assay type: cell-based
# [19] = biological target: T1, Protein cereblon/Bromodomain-containing protein 4 (Homo sapiens); assay: Protac activity at CRBN/BRD4 in human MV4-11 cells assessed as induction of BRD4 protein degradation by measuring residual activity at 0.005 uM incubated for 3 hrs by Western blot analysis relative to control; assay type: cell-based
# [20] = biological target: T1, Protein cereblon/Bromodomain-containing protein 4 (Homo sapiens); assay: Protac activity at CRBN/BRD4 in human MV4-11 cells assessed as induction of BRD4 protein degradation by measuring residual activity at 0.015 uM incubated for 3 hrs by Western blot analysis relative to control; assay type: cell-based
# [21] = biological target: T1, Protein cereblon/Bromodomain-containing protein 4 (Homo sapiens); assay: Protac activity at CRBN/BRD4 in human MV4-11 cells assessed as induction of BRD4 protein degradation by measuring residual activity at 0.045 uM incubated for 3 hrs by Western blot analysis relative to control; assay type: cell-based
# [22] = biological target: T1, Protein cereblon/Bromodomain-containing protein 4 (Homo sapiens); assay: Protac activity at CRBN/BRD4 in human MV4-11 cells assessed as induction of BRD4 protein degradation by measuring residual activity at 0.003 uM incubated for 3 hrs by Western blot analysis relative to control; assay type: cell-based
# [23] = biological target: T1, Protein cereblon/Bromodomain-containing protein 4 (Homo sapiens); assay: Protac activity at CRBN/BRD4 in human MV4-11 cells assessed as induction of BRD4 protein degradation by measuring residual activity at 0.009 uM incubated for 3 hrs by Western blot analysis relative to control; assay type: cell-based
# [24] = biological target: T1, Protein cereblon/Bromodomain-containing protein 4 (Homo sapiens); assay: Protac activity at CRBN/BRD4 in human MV4-11 cells assessed as induction of BRD4 protein degradation by measuring residual activity at 0.027 uM incubated for 3 hrs by Western blot analysis relative to control; assay type: cell-based
# [25] = biological target: T1, Protein cereblon/Bromodomain-containing protein 4 (Homo sapiens); assay: Protac activity at CRBN/BRD4 in human MM1.S cells assessed as induction of BRD4 protein degradation by measuring residual activity at 0.07 uM incubated for 3 hrs by Western blot analysis relative to control; assay type: cell-based
# [26] = biological target: T1, Protein cereblon/Bromodomain-containing protein 4 (Homo sapiens); assay: Protac activity at CRBN/BRD4 in human MM1.S cells assessed as induction of BRD4 protein degradation by measuring residual activity at 0.2 uM incubated for 3 hrs by Western blot analysis relative to control; assay type: cell-based
# [27] = biological target: T1, Protein cereblon/Bromodomain-containing protein 4 (Homo sapiens); assay: Protac activity at CRBN/BRD4 in human MM1.S cells assessed as induction of BRD4 protein degradation by measuring residual activity at 0.6 uM incubated for 3 hrs by Western blot analysis relative to control; assay type: cell-based
SMILES,IC50 [1] [µM],IC50 [2] [µM],Activity [3] [%],Activity [4] [%],Activity [5] [%],Activity [6] [%],Activity [7] [%],Activity [8] [%],Activity [9],further results
Cc1sc2c(c1C)C(c1ccc(Cl)cc1)=N[C@@H](CC(=O)NCCNC(=O)c1ccc(COc3cccc4c3CN(C3CCC(=O)NC3=O)C4=O)cc1)c1nnc(C)n1-2 (stereo partly specified),0.182,0.018,99,92,89,141,141,120,–,–
Cc1sc2c(c1C)C(c1ccc(Cl)cc1)=N[C@@H](CC(=O)NCCCCNC(=O)COc1cccc3c1C(=O)N(C1CCC(=O)NC1=O)C3=O)c1nnc(C)n1-2 (stereo partly specified),0.141,0.013,109,87,54,137,132,48,Active,Activity [10]: 14%; Activity [11]: 26%; Activity [12]: 43%; Activity [13]: 40%; Activity [14]: 21%; Activity [15]: 0%
Cc1sc2c(c1C)C(c1ccc(Cl)cc1)=N[C@@H](CC(=O)NCCCCNC(=O)c1ccc(COc3cccc4c3CN(C3CCC(=O)NC3=O)C4=O)cc1)c1nnc(C)n1-2 (stereo partly specified),0.139,0.01,–,–,–,–,–,–,–,Activity [16]: 98%; Activity [17]: 59%; Activity [18]: 93%; Activity [19]: 126%; Activity [20]: 102%; Activity [21]: 95%
Cc1sc2c(c1C)C(c1ccc(Cl)cc1)=N[C@@H](CC(=O)NCCCCCNC(=O)c1ccc(COc3cccc4c3C(=O)N(C3CCC(=O)NC3=O)C4=O)cc1)c1nnc(C)n1-2 (stereo partly specified),0.11,0.008,87,86,75,–,–,–,inactive,Activity [22]: 95%; Activity [23]: 96%; Activity [24]: 56%
Cc1sc2c(c1C)C(c1ccc(Cl)cc1)=N[C@@H](CC(=O)NCCCNC(=O)c1ccc(COc3cccc4c3C(=O)N(C3CCC(=O)NC3=O)C4=O)cc1)c1nnc(C)n1-2 (stereo partly specified),0.302,0.028,–,–,–,89,66,78,inactive,Activity [25]: 126%; Activity [26]: 108%; Activity [27]: 84%
Cc1sc2c(c1C)C(c1ccc(Cl)cc1)=N[C@@H](CC(=O)OC(C)(C)C)c1nnc(C)n1-2,0.062,0.042,–,–,–,–,–,–,–,–
